# Experimental data: patent publication US5703056A, “Non-invasive imaging of gene transfer” (priority 1995, dated 1997)
# Where two headings read alike, the source gives them in different places.
# Key:
# HSV1-TK = HSV1-TK (Human alphaherpesvirus 1 strain 17, UniProt P0DTH5); assay: Single 120 minute paired accumulation of FIAU and IUdR by RG2TK+ and RG2 cells; type: cell-based, herpes simplex virus; conditions: Data from FIG. 6A
# Experimental: The processing of cells and incubation medium was the same as that described above. A portion of the harvested cells was also processed for acid-insoluble (10% TCA) radioactivity. Decay corrected ^123 I-radioactivity was measured in a Packard AutoGamma 5550 Spectrometer. Samples were stored for 1 week to allow for ^123 I decay (12 half lives), and recounted afterwards in the Packard B1600 TriCarb beta spectrometer to determine ^3 H- and ^14 C-radioactivity.
# All radioactivity measurements were expressed as a percent of administered dose per gram of tissue or per unit volume of fluid as described above.
# Data analysis. […] These two related measures are useful to evaluate the intensity of the images (e.g., high "sensitivity") and the ability to differentiate between HSV1-TK and endogenous-TK in the images (e.g., high "selectivity"). The "selectivity" measure is not interpreted as a relative sensitivity (i.e., a value of 1 indicating equal sensitivity) of the substrate to HSV1-TK vs. endogenous-TK. […] They are intended for the direct comparison of substrates only.
# [1] = Calculated permeability surface area product (PS) of the cerebral capillaries; set-up: unit not given here
# Text: Passage of the nucleosides across the blood brain barrier (BBB) is an important factor to consider in the design of radiolabelled 2'-fluoro-nucleoside analogues for imaging HSV1-TK expression in the brain. […] It is known that brain capillary permeability for many compounds is related to their octanol/water partition coefficient (P) and molecular weight. [Levin, V. N. J. Med. Chem., 23: 682-4, 1980] Several authors have described a relationship between the brain capillary permeability and log P or log P·Dm, where Dm is a measure of diffusibility. […] [Dischino, D. D., Welch, M. J., Kilbourn, M. N., and Raichle, M. E., J. Nucl. Med., 24: 1030-8, 1983] […] Fenstermacher, J. D. Drug transfer across the blood brain barrier. In: Topics in Pharmaceutical Sciences. Ed.: Breimer, D. D., and Speiser, P. Amsterdam: Elsevier, pp. 143-54, 1983; Fenstermacher, J. D., and Rapoport, S. I. In: Handbook of Physiology. The Cardiovascular System. Microcirculation. Bethesda, Md.: Am. Physiol. Soc., sect. 2, Vol. IV, pt. 2, chapt. 21, p. 969-1000, 1984; Fenstermacher, J. D. In: Implications of Blood-Brain Barrier and Its Manipulation. Basic Science Aspects. Ed. by Neuwelt, E., New York: Plenum, Vol. 1, Chapt. 6, pp. 132-55, 1988]
# [2] = cited from earlier work
# RG2TK+ and RG2 tumors [3] = assay: Tissue sampling of FIAU- and IUdR-derived radioactivity in i.c. and s.c. RG2TK+ and RG2 tumors; type: in vivo, rat; conditions: 24 h, percent dose per gram
# Experimental: Animal preparation and tumor inoculation Two male Fisher 344 rats weighing 250±20 g were anesthetized with a gas mixture consisting of 2% Isoflurane, 70% nitrous oxide and 30% oxygen. A 2% lidocaine gel was applied to the ears and the head was fixed with a stereotaxic device. After midline scalp incision, a burr hole was made through the skull 1 mm posterior and 3 mm lateral to the bregma. The tumor cell suspensions were aspirated into a 50 μl gas tight Hamilton syringe (Ga. 25) and attached to a stereotaxic device. The syringe needle was then inserted 6 mm deep into the caudate nucleus and the cell suspension (10^5 cells in 10 μl) was slowly injected over 2 minutes. RG2TK+ cells were injected into the left hemisphere, and RG2 cells were injected into the right hemisphere. Bone wax was applied to cover the skull defect and the scalp was closed with 4.0 silk suture. Subcutaneous inoculations (10^6 cells in 50 μl) were also performed (RG2TK+ cells into the left flank and RG2 cells into the right flank). After the procedure, the animals were marked and placed in standard cages with water and Rodent LabChow #5001 (Purina Mills, Inc.) ad libitum. Comparison of different "marker substrates" for identifying HSV1-TK expression in animals After 10 days of tumor growth, both animals received i.v. injections of [^123 I]-IUdR (400 uCi) and [^14 C]-FIAU (10 uCi). Radioactivity was allowed to clear from the body over 24 hours to reduce tissue background activity, predominantly due to radiolabelled iodide, the major metabolite of [^123 I]-IUdR. [Tjuvajev, J. G., Muraki, A., Ginos, J., Berk, J., Koutcher, J., Ballon, D., Beattie, B., Finn, R., and Biasberg, R., J. Nucl. Med., 34: 1152-62, 1993; Tjuvajev, J. G., Macapinlac, H. A., Daghighian, F., Scott, A. M., ginos, J. Z., Finn, R. D., Kothari, P., Desai, R., Zhang, Z., Beattie, B., Graham, M., Larson, S., and Blasberg, R. G., J. Nucl. Med., 35: 1407-17, 1994] The rats were killed at 24 hours under anesthesia; samples of tumor and adjacent tissue were disected and weighed, blood and plasma were obtained, and radioactivity was measured. Decay corrected ^123 I-radioactivity was assayed in a Packard AutoGamma 5550 Spectrometer; samples were stored in a refrigerator for 1 week to allow for ^123 I decay (>12 half lives) and ^14 C-radioactivity was measured in a Packard B1600 TriCarb beta spectrometer using external standard quench correction. Sample radioactivity was expressed as a percent of administered dose per gram of tissue of per unit volume of fluid.
# RG2TK+ and RG2 tumors [4] = assay: Quantitative autoradiography of 2-[14C]-FIAU in i.c. RG2TK+ and RG2 tumors; type: in vivo, rat; conditions: for Sensitivity* Δ(substrate % dose/g)/Δ(HSV1TK mRNA/S28 RNA IOD): autoradiographic data
# Experimental: (§1) Two rats were prepared with i.c. RG2TK+ and RG2 tumors as described above. […] The brain was rapidly extracted and frozen in preparation for cryosectioning and quantitative autoradiography (QAR). [Blasberg, Seminars in Neurology] […] To convert the x-ray images to tissue radioactivity (nCi/g), the optical density of the standards was measured by computerized image analysis. A standard curve that relates mean optical density and tissue radioactivity was generated for each film. […]
# [5] = as above; type: in vivo, rat; conditions: rat, iv, 50 uCi
# Experimental: as §1
# Sequence of HSV1-TK (P0DTH5 whole entry): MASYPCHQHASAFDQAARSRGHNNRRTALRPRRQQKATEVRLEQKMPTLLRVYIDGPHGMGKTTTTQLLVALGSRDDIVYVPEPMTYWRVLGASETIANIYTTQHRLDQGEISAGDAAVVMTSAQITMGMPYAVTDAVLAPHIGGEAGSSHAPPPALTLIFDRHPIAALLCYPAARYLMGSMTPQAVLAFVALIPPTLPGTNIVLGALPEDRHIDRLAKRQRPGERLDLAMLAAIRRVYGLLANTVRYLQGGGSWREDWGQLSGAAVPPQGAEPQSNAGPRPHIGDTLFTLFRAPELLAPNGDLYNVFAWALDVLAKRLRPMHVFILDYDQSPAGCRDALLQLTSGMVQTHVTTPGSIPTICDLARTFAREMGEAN
smiles,measurement,setting,value
"O=c1[nH]c(=O)n([C@@H]2O[C@H](CO)[C@@H](O)[C@@H]2F)cc1I [FIAU, 2'-fluoro-5-iodo-1-β-D-arabinofuranosyl-uracil]",Sensitivity* Δ(substrate/TdR)/Δ(HSV1TK mRNA/S28 RNA IOD),HSV1-TK,0.0105
same,PS*,[1]; calculated from measured log P and MW: log(PS)=5.2+log(P·Dm),0.59
same,PS+,[1]; calculated from published log P and MW: log(PS)=5.2+log(P·Dm),0.59
same,organ damage in clinical trial,"[2]; human, in vivo",severe liver and pancreatic damage
same,dose-limiting toxicity,[2]; pharmacologic doses,"dose-limiting gastrointestinal, hematologic and neurotoxicity"
same,Sensitivity* (uptake in RG2TK+ tumor - uptake in RG2 tumor)/(HSV1TK mRNA/S28 RNA IOD in RG2TK+ cells),RG2TK+ and RG2 tumors [3]; RG2TK+/RG2 i.c. tumors,0.0025
same,Sensitivity* (uptake in RG2TK+ tumor - uptake in RG2 tumor)/(HSV1TK mRNA/S28 RNA IOD in RG2TK+ cells),RG2TK+ and RG2 tumors [3]; RG2TK+/RG2 s.c. tumors,0.0150
same,difference in radioactivity localized to transduced compared to non-transduced tumor,"RG2TK+ and RG2 tumors [4]; 4 hours after tracer, RG2TK#16 vs RG2 i.c., non-rinsed autoradiogram",only a small difference
same,Sensitivity* Δ(substrate % dose/g)/Δ(HSV1TK mRNA/S28 RNA IOD),RG2TK+ and RG2 tumors [4]; RG2TK#16/RG2 i.c. tumors,0.0058
same,Sensitivity* Δ(substrate % dose/g)/Δ(HSV1TK mRNA/S28 RNA IOD),RG2TK+ and RG2 tumors [4]; RG2TK+/RG2 i.c. tumors,0.0039
same,peak activity,"RG2TK+ and RG2 tumors [4]; i.c. RG2TK+ tumor, 24 h",0.43 % dose/g
same,tissue uptake at 24 h,"[5]; brain, 24 h, level of detection on the autoradiograms, read-out: adjacent brain activity",< 0.005 %ID/g
same,tissue uptake at 24 h,"[5]; i.c. rg2tk+ tumor, i.c. RG2TK+ tumor, 24 h, read-out: peak activity",0.43 %ID/g
same,tissue uptake at 24 h,"[5]; intracerebral tumor, i.c. RG2TK+ tumor, 24 h after 50 uCi 2-[14C]-FIAU i.v., read-out: mean activity",0.18 ± 0.14 %ID/g
